Tests used:
Type in all cases: in vivo, soybean
Mutant 1-184A = test: Test A postemergence herbicide spray, greenhouse pots
Description: (§1) In the first post-emergence test, two true-breeding resistant mutant lines, W19 and W20, were compared to previously isolated tolerant mutants and wild-type Williams 82. Eighteen pots (20 cm diameter) of each soybean line (2 seeds per pot) were planted using a standard sterile potting mix. When the seedlings reached the second trifoliolate stage, plants were thinned back to one plant per pot. Each pot was then sprayed with a specific herbicide treatment using a conveyor belt spray apparatus to emulate field application. The nine different herbicide treatments included one rate (8 g/ha) of Compound 1 and two rates (8 and 32 g/ha) each of four other sulfonylurea herbicides (Compounds 2,3,7 and 8) (see Table VI) using a factorial treatment design with 2 replications.
(§2) In both postemergence tests, plants were returned to the greenhouse after treatment and provided with ample light, moisture, and nutrients to support healthy plant growth. Two to three ratings per pot were recorded over a three-week period and averaged to obtain a single value for each pot For each herbicide, analysis of variance on injury ratings was performed separately. Fisher's least significant difference (LSD) was used to determine the significance of line mean differences at each herbicide rate using the 95% level of confidence. […]

Williams 82 [1] = test: as above
Description: as §1, §2

mutant W19 = test: as above
Description: as §1, §2

mutant W20 [2] = test: as above
Description: as §1, §2

mutant line W20 = test: Test B postemergence cross resistance test; settings: Glycine max, post-emergence
Description: (§3) In the second postemergence test, six true-breeding resistant mutant lines (W4, W17, W19, W20, W23, and W28) were compared to Williams 82 for cross resistance to a broad range of ALS inhibitors including eight sulfonylureas and three imidazolinones. Two seeds were planted in each 10 cm pot and allowed to grow to the second trifoliolate stage. Pots were not thinned back if both plants were at the proper stage. For each of 11 herbicides, two rates (Table VII) were selected based on previous data: the low rate was expected to cause significant injury (but not death) to Williams 82 and the high rate was expected to severely injure or kill Williams 82. All but a few line x rate treatments were replicated twice.
In both postemergence tests, plants were returned to the greenhouse after treatment and provided with ample light, moisture, and nutrients to support healthy plant growth. Two to three ratings per pot were recorded over a three-week period and averaged to obtain a single value for each pot For each herbicide, analysis of variance on injury ratings was performed separately. Fisher's least significant difference (LSD) was used to determine the significance of line mean differences at each herbicide rate using the 95% level of confidence.

mutant line W17 = test: Test B postemergence cross resistance test; settings: Glycine max, post-emergence
Description: as §3, §2

mutant line W28 = test: Test B postemergence cross resistance test; settings: Glycine max, post-emergence
Description: as §3, §2

Williams 82 [3] = test: Test B postemergence cross resistance test; settings: Glycine max, post-emergence
Description: as §3, §2

mutant line W4 = test: Test B postemergence cross resistance test; settings: Glycine max, post-emergence
Description: as §3, §2

mutant line W19 = test: Test B postemergence cross resistance test; settings: Glycine max, post-emergence
Description: as §3, §2

mutant line W23 = test: Test B postemergence cross resistance test; settings: Glycine max, post-emergence
Description: as §3, §2

Williams 82 [4] = test: Postemergence herbicide spray test of W4-4 (Table VII-A); settings: two weeks after treatment
Experimental: (§4) To investigate this hypothesis, a postemergence herbicide spray test was conducted to compare the reaction of W4-4 to both W20 and wild-type Williams. The applicant was particularly interested in the resistance of W4-4 to herbicide treatments that were injurious to both Williams and W20 in a previous test (Table VII). […] Twenty-four plants each of W4-4, W20, and Williams were planted in separate 10 cm pots and allowed to grow to the second trifoliolate stage. Each pot constituted a single experimental unit receiving a single herbicide treatment. Herbicide treatments (Table VIIA) were applied as described for the first postemergence test and were replicated twice. Control plants were sprayed with the spray carrier solution only (water with 0.25% X77 surfactant). At two weeks after treatment, each plant was rated for % herbicide injury as described in Table VIII. Analysis of variance on injury ratings was performed separately for each herbicide to calculate treatment means and standard errors. Fisher's least significant difference (LSD) was used to determine the significance of line means differences at each herbicide rate using the 95% level of confidence. […]

Mutant W4-4 = test: as above; settings: two weeks after treatment
Experimental: as §4

mutant W20 [5] = test: as above; settings: two weeks after treatment
Experimental: as §4

Compound: COC(=O)c1sccc1S(=O)(=O)NC(=O)Nc1nc(C)nc(OC)n1 [Compound 2, Methyl 3-[[[[(4-methoxy-6-methyl-1,3,5-triazine-2-yl)amino]carbonyl]amino]sulfonyl]-2-thiophenecarboxylate]
- mean % injury (Mutant 1-184A; 8 g/ha postemergence): 13%
- mean % injury (Mutant 1-184A; 32 g/ha postemergence): 58%
- mean % injury (Williams 82 [1]; WM 82, 8 g/ha postemergence): 13%
- mean % injury (Williams 82 [1]; WM 82, 32 g/ha postemergence): 63%
- mean % injury (mutant W19; W19, 8 g/ha postemergence): 0%
- mean % injury (mutant W19; W19, 32 g/ha postemergence): 7%
- mean % injury (mutant W20 [2]; W20, 8 g/ha postemergence): 0%
- mean % injury (mutant W20 [2]; W20, 32 g/ha postemergence): 6%
- percent crop injury at 16 g/ha (mutant line W20; W20, 16 g/ha postemergence): 5%
- percent crop injury at 64 g/ha (mutant line W20; W20, 64 g/ha postemergence): 5%
- soybean crop injury (%) at 16 g/ha (mutant line W17; W17, 16 g/ha postemergence): 0%
- soybean crop injury (%) at 64 g/ha (mutant line W17; W17, 64 g/ha postemergence): 3%
- mean % injury to soybean at 16 g/ha (mutant line W28; W28, 16 g/ha postemergence): 0%
- mean % injury to soybean at 64 g/ha (mutant line W28; W28, 64 g/ha postemergence): 5%
- soybean crop injury at 16 g/ha (Williams 82 [3]; Wm 82, 16 g/ha postemergence): 70%
- soybean crop injury at 64 g/ha (Williams 82 [3]; Wm 82, 64 g/ha postemergence): 91%
- % crop injury at 16 g/ha (mutant line W4; W4, 16 g/ha postemergence): 0%
- % crop injury at 64 g/ha (mutant line W4; W4, 64 g/ha postemergence): 5%
- percent soybean crop injury at 16 g/ha (mutant line W19; W19, 16 g/ha postemergence): 0%
- percent soybean crop injury at 64 g/ha (mutant line W19; W19, 64 g/ha postemergence): 6%
- percent soybean injury at 16 g/ha (mutant line W23; W23, 16 g/ha postemergence): 0%
- percent soybean injury at 64 g/ha (mutant line W23; W23, 64 g/ha postemergence): 8%

Compound: COC(=O)c1ccccc1S(=O)(=O)NC(=O)N(C)c1nc(C)nc(OC)n1 [Compound 3, Methyl 2-[[[[N-(4-methoxy-6-methyl-1,3,5-triazin-2-yl)N-methylamino]carbonyl]amino]sulfonyl]benzoate]
- mean % injury (Mutant 1-184A; 8 g/ha postemergence): 90%
- mean % injury (Mutant 1-184A; 32 g/ha postemergence): 91%
- mean % injury (Williams 82 [1]; WM 82, 8 g/ha postemergence): 92%
- mean % injury (Williams 82 [1]; WM 82, 32 g/ha postemergence): 95%
- mean % injury (mutant W19; W19, 8 g/ha postemergence): 14%
- mean % injury (mutant W19; W19, 32 g/ha postemergence): 63%
- mean % injury (mutant W20 [2]; W20, 8 g/ha postemergence): 8%
- mean % injury (mutant W20 [2]; W20, 32 g/ha postemergence): 63%
- percent crop injury at 2 g/ha (mutant line W20; W20, 2 g/ha postemergence): 0%
- soybean crop injury (%) at 2 g/ha (mutant line W17; W17, 2 g/ha postemergence): 0%
- soybean crop injury (%) at 8 g/ha (mutant line W17; W17, 8 g/ha postemergence): 25%
- mean % injury to soybean at 2 g/ha (mutant line W28; W28, 2 g/ha postemergence): 8%
- mean % injury to soybean at 8 g/ha (mutant line W28; W28, 8 g/ha postemergence): 21%
- soybean crop injury at 2 g/ha (Williams 82 [3]; Wm 82, 2 g/ha postemergence): 60%
- soybean crop injury at 8 g/ha (Williams 82 [3]; Wm 82, 8 g/ha postemergence): 94%
- % crop injury at 2 g/ha (mutant line W4; W4, 2 g/ha postemergence): 3%
- % crop injury at 8 g/ha (mutant line W4; W4, 8 g/ha postemergence): 18%
- percent soybean crop injury at 2 g/ha (mutant line W19; W19, 2 g/ha postemergence): 5%
- percent soybean crop injury at 8 g/ha (mutant line W19; W19, 8 g/ha postemergence): 29%
- percent soybean injury at 2 g/ha (mutant line W23; W23, 2 g/ha postemergence): 0%
- percent soybean injury at 8 g/ha (mutant line W23; W23, 8 g/ha postemergence): 45%

Compound: CCS(=O)(=O)c1cccnc1S(=O)(=O)NC(=O)Nc1nc(OC)cc(OC)n1 [Compound 7, N-[[(4,6-dimethoxy-2-pyrimidinyl)amino]carbonyl]-3-(ethylsulfonyl)-2-pyridinesulfonamide]
- mean % injury (Mutant 1-184A; 8 g/ha postemergence): 93%
- mean % injury (Mutant 1-184A; 32 g/ha postemergence): 93%
- mean % injury (Williams 82 [1]; WM 82, 8 g/ha postemergence): 95%
- mean % injury (Williams 82 [1]; WM 82, 32 g/ha postemergence): 93%
- mean % injury (mutant W19; W19, 8 g/ha postemergence): 65%
- mean % injury (mutant W19; W19, 32 g/ha postemergence): 80%
- mean % injury (mutant W20 [2]; W20, 8 g/ha postemergence): 65%
- mean % injury (mutant W20 [2]; W20, 32 g/ha postemergence): 84%
- percent crop injury at 1 g/ha (mutant line W20; W20, 1 g/ha postemergence): 28%
- percent crop injury at 4 g/ha (mutant line W20; W20, 4 g/ha postemergence): 66%
- mean % injury (Williams 82 [4]; WM82, 4 g/ha postemergence): 83%
- mean % injury (Williams 82 [4]; WM82, 16 g/ha postemergence): 93%
- mean % injury (Williams 82 [4]; WM82, 32 g/ha postemergence): 90%
- mean % injury (Mutant W4-4; W4-4, 4 g/ha postemergence): 10%
- mean % injury (Mutant W4-4; W4-4, 16 g/ha postemergence): 30%
- mean % injury (Mutant W4-4; W4-4, 32 g/ha postemergence): 43%
- mean % injury (mutant W20 [5]; W20, 4 g/ha postemergence): 28%
- mean % injury (mutant W20 [5]; W20, 16 g/ha postemergence): 43%
- mean % injury (mutant W20 [5]; W20, 32 g/ha postemergence): 83%
- soybean crop injury (%) at 1 g/ha (mutant line W17; W17, 1 g/ha postemergence): 16%
- soybean crop injury (%) at 4 g/ha (mutant line W17; W17, 4 g/ha postemergence): 55%
- mean % injury to soybean at 1 g/ha (mutant line W28; W28, 1 g/ha postemergence): 20%
- mean % injury to soybean at 4 g/ha (mutant line W28; W28, 4 g/ha postemergence): 54%
- soybean crop injury at 1 g/ha (Williams 82 [3]; Wm 82, 1 g/ha postemergence): 61%
- soybean crop injury at 4 g/ha (Williams 82 [3]; Wm 82, 4 g/ha postemergence): 98%
- % crop injury at 1 g/ha (mutant line W4; W4, 1 g/ha postemergence): 21%
- % crop injury at 4 g/ha (mutant line W4; W4, 4 g/ha postemergence): 69%
- percent soybean crop injury at 1 g/ha (mutant line W19; W19, 1 g/ha postemergence): 19%
- percent soybean crop injury at 4 g/ha (mutant line W19; W19, 4 g/ha postemergence): 65%
- percent soybean injury at 1 g/ha (mutant line W23; W23, 1 g/ha postemergence): 31%
- percent soybean injury at 4 g/ha (mutant line W23; W23, 4 g/ha postemergence): 60%
